The record followed here is patent US9527847B2, “Treatment of lupus, fibrotic conditions, and inflammatory myopathies and other disorders using PI3 kinase inhibitors” (INFINITY PHARMACEUTICALS, INC., priority 2012, dated 2016).

One test concerns NZBWF1/J mice. The test can be described thus: Murine NZB/W F1 lupus model. In kind it is in vivo, mouse. The note with it: 2 mg/kg PO QD, vs vehicle. The text has this: Female NZBWF1/J mice (n=60) that were 8 weeks old on arrival and weighed approximately 35-51 grams (mean 42 g) at enrollment (mouse age approx. 23 weeks) were obtained from The Jackson Laboratory, Bar Harbor, Me. (stock number 100008). Animals were identified by a distinct number of ink marks at the base of the tail delineating animal number. After enrollment, all cages were labeled with protocol number, group number, and animal numbers.
Mice were terminated at age 43 weeks (day 140).
All dose solutions were prepared to deliver in 10 ml/kg (0.3 ml/30 g mouse).
Body weights were measured and recorded prior to study initiation for randomization, on the first day of dosing prior to dosing, and weekly throughout the study. Body weights were also recorded at scheduled termination points and as needed if test subjects appeared to decrease in weight by visual inspection. The animals were observed daily for significant clinical signs, morbidity and mortality.
Urine from each animal was tested weekly (beginning at mouse age 23 weeks) for proteinuria using Clinitech Multistick test strips (Bayer).
At necropsy, animals were anesthetized with isoflorane and bled via cardiac puncture for serum (for clinical chemistry analysis) and plasma (for Anti-dsDNA ELISA and PK). Terminal urine was collected and assessed. Spleens and kidneys (paired) were collected, weighed, and placed in 10% NBF. Serum obtained at necropsy was sent to Antech Diagnostics for analysis. Terminal plasma samples were split with half being used for Anti-dsDNA ELISA and the other half being shipped to the sponsor.
Anti-dsDNA IgG analysis was performed on days 0, 49, 98, and 140 (mouse age 23, 30, 37, and 43 weeks). Anti-dsDNA IgG levels were determined using an Anti-dsDNA IgG ELISA Kit (Alpha Diagnostic, kit #5120, lot #90903K4) following manufacturer's instructions.
Blood samples for clinical chemistry evaluation were collected at termination via cardiac puncture from Isoflurane anesthetized animals into serum separator microtainer tubes. Serum was sent to Antech Diagnostics for analysis.
The following parameters were measured: Albumin (ALB), Albumin: Globulin ratio (A/G), Alkaline phosphatase (ALK), Alanine aminotransferase (ALT), Aspartate aminotransferase (AST), Calcium (CA), Magnesium (Mg), Phosphorous (P), Globulin (GLOB), Electrolytes (Sodium (Na), Potassium (K), Chloride (Cl)), Gamma glutamyltransferase (GGT), Total bilirubin (TBILI), Amylase (AMY), Lipase (LIP), Osmolality, Triglycerides (TRIG), Total cholesterol (CHOL), Urea nitrogen (BUN), Creatinine (CREAT), Glucose (GLU), Total protein (TP), and Creatinine kinase (CPK).
Histopathologic evaluation was performed on kidneys. Kidneys from all surviving animals were examined microscopically by a board certified veterinary pathologist and observations were entered into a computer-assisted data retrieval system. Kidney sections were stained with Masson's Trichrome, or Hematoxylin and Eosin. To maintain blinding of the analysis, slides were labeled with the animal number with no reference to treatment group.
Kidneys were scored according to the following system (developed by Chan O, Madaio M P, Shlomchik M J. The roles of B cells in MRL/lpr murine lupus. Annals New York Academy of Sciences, 1997; 815:75-82), modified to suit the lesion severity.
• 0=Normal. • 1=Focal or multifocal, minimal to mild, early proliferative. • 2=Multifocal mild to moderate or mild diffuse proliferative. • 3=Diffuse moderate proliferative with or without multifocal severe areas. • 4=Marked diffuse proliferative, with crescents/sclerosis, multifocal protein casts present. • 5=Severe diffuse proliferative, with crescents/sclerosis, diffuse protein casts present. […]

For a further test, the system named is mouse EAE model. As to the kind of experiment: Experimental Autoimmune Encephalomyelitis (EAE) model, semi-therapeutic, 28 day. The class given is in vivo. Conditions: FTY720 3 mg/kg QD p.o. The protocol: EAE was induced in 60 mice using Hooke Kit™ MOG35-55/CFA Emulsion PTX (Hooke Laboratories, Lawrence Mass.), catalog number EK-0110, lot number 0104, per manufacturer's recommended protocol, except that pertussis toxin was diluted with phosphate buffered saline to achieve 1.4× and 1.3× solution (starting from the 1.5× solution in the kit). This was done to optimize disease severity for this particular study.
Mice were injected subcutaneously, at two sites in the back, with the emulsion component of the kit (containing MOG35-55). One site of injection was in the area of the upper back, approximately 1 cm caudal of the neck line. The second site was in the area of the lower back, approximately 2 cm cranial of the base of the tail. Injection volume was 0.1 mL at each site. Within 2 hours of the injection of emulsion, and then again 24 hours after the injection of emulsion, the pertussis toxin component of the kit was administered intraperitoneally. Volume of each injection was 0.1 mL.
Vehicle for Group 2 (FTY720) was water and 2% ethanol. Vehicle for all other groups was water, 0.5% CMC (low viscosity), and 0.05% Tween80. Mice were dosed at the same time every day, +/−1 hour. The last day of dosing was Day 27 after immunization.
Readouts were EAE scores and changes in body weight. Mice were scored daily from Day 7 to Day 28, and body weights were measured three times/week (Monday, Wednesday and Friday), starting on Day −1.
EAE was scored on scale 0 to 5: • 0 No obvious changes in motor functions of the mouse in comparison to non-immunized mice. When picked up by the tail, the tail has tension and is erect. Hind legs are usually spread apart. When the mouse is walking, there is no gait or head tilting. • 1 Limp tail. When the mouse is picked up by the tail, instead of being erect, the whole tail drapes over finger. • 2 Limp tail and weakness of hind legs. When mouse is picked up by tail, legs are not spread apart, but held closer together. When the mouse is observed walking, it has a clearly apparent wobbly walk. • 3 Limp tail and complete paralysis of hind legs (most common); or limp tail with paralysis of one front and one hind leg; or all of: severe head tilting, walking only along the edges of the cage, pushing against the cage wall, and spinning when picked up by the tail. • 4 Limp tail, complete hind leg and partial front leg paralysis. Mouse is minimally moving around the cage but appears alert and feeding Usually, euthanasia is recommended after the mouse scores level 4 for 2 days. When the mouse is euthanized because of severe paralysis, score of 5 is entered for that mouse for the rest of the experiment. • 5 Complete hind and complete front leg paralysis, no movement around the cage; or mouse is spontaneously rolling in the cage; or mouse is found dead due to paralysis.
At the end of the study 3 luxol fast blue (LFB) stained sections and 3 H&E sections, from lumbar, thoracic, and cervical spinal cord of all mice in Groups 1, 2, 3, and 6 and the 3 naïve mice were prepared and analyzed.
Inflammatory foci were counted in each H&E stained section. Each group of approximately 20 cells was counted as one focus. Foci larger than 20 cells were counted based on an estimate of how many foci of 20 cells were present.
The demyelination score represents an estimate of demyelinated area for each section as follows. For LFB stained slides, the demyelinated area was estimated based on intensity of blue staining of myelin. For H&E stained sections, demyelinated area was estimated by looking for interruption of normal structure—pallor and vacuolation consistent with edema and demyelination, and dilated axons. • 0—no demyelination (less than 5% demyelinated area) • 1—5 to 20% demyelinated area • 2—20 to 40% demyelinated area • 3—40 to 60% demyelinated area • 4—60 to 80% demyelinated area • 5—80 to 100% demyelinated area.
The number of apoptotic cells in each of the three H&E sections was determined.

A further test relates to B cell proliferation. The test can be described thus: B cell proliferation EC50 (Table 3). Conditions: in vitro. In kind it is cell-based.
The next test has as its target T1, PI3K β (Homo sapiens, UniProt P42338).
T1 construct: purchased Upstate
The test can be described thus: In vitro IC50, PI3K β (Table 3). In kind it is biochemical. The protocol: (§1) An exemplary system is PI 3-Kinase (human) HTRF™ Assay from Upstate. […] The total reaction volume is approximately 20 μl per well. […] The reaction is stopped by adding 5 μl of Stop Solution per well and then 5 μl of Detection Mix is added per well.

In a further test the target is T2, PI3K γ (Homo sapiens, UniProt P48736).
T2 construct: purchased Sigma
As to the kind of experiment: In vitro IC50, PI3K γ (Table 3). In kind it is biochemical. The protocol:
as §1

The target in a further test is T3, PI3K α (Homo sapiens, UniProt P42336).
T3 construct: purchased Upstate
As to the kind of experiment: In vitro IC50, PI3K α (Table 3). The class given is biochemical. The method, then: as §1

T1 sequence (P42338 whole entry): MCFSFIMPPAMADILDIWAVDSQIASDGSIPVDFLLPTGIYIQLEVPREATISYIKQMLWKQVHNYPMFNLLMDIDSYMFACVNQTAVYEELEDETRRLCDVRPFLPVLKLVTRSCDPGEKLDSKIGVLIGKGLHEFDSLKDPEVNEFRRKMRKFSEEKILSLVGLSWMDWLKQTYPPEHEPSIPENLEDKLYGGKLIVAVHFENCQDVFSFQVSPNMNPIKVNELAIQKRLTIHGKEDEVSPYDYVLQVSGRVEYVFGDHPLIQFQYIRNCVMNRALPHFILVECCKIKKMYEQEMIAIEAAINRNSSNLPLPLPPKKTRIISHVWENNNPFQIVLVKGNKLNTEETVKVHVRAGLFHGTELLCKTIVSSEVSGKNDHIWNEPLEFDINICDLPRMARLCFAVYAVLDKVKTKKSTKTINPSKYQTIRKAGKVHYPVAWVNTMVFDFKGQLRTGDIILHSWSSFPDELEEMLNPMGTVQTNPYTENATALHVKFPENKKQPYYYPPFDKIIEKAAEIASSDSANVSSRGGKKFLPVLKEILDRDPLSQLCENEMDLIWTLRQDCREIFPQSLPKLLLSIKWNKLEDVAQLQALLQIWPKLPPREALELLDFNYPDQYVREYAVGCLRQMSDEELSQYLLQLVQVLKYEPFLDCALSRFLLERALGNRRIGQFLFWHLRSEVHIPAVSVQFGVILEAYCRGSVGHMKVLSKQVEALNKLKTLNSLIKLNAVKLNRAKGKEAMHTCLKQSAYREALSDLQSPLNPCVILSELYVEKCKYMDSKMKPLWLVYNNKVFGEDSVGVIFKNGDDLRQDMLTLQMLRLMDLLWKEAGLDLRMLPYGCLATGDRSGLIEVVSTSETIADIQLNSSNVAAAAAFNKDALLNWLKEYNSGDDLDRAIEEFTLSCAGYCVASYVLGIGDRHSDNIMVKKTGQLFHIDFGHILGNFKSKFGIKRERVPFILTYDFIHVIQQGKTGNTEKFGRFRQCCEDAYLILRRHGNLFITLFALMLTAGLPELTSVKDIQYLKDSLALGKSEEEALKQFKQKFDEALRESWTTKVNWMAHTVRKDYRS
T1 sequence (P27986 whole entry partner): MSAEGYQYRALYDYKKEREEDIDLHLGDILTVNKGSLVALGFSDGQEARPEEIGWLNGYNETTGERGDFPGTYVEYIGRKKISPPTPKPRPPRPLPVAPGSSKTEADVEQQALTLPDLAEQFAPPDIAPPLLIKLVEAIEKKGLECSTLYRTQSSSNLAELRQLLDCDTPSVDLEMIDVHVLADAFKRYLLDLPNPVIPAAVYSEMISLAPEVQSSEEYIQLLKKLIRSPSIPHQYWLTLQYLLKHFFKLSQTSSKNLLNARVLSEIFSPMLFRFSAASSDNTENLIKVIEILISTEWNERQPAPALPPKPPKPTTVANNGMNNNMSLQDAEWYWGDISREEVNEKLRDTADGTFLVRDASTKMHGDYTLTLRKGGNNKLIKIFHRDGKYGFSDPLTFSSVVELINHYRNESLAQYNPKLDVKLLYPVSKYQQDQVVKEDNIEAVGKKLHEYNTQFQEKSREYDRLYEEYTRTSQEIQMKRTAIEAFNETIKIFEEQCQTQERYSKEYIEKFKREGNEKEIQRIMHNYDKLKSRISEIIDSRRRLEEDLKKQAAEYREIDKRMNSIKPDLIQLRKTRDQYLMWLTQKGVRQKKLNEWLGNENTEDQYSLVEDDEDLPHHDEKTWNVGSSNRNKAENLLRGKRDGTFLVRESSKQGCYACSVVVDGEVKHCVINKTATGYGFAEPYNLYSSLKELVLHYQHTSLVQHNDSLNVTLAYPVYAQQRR
T3 sequence (P42336 whole entry): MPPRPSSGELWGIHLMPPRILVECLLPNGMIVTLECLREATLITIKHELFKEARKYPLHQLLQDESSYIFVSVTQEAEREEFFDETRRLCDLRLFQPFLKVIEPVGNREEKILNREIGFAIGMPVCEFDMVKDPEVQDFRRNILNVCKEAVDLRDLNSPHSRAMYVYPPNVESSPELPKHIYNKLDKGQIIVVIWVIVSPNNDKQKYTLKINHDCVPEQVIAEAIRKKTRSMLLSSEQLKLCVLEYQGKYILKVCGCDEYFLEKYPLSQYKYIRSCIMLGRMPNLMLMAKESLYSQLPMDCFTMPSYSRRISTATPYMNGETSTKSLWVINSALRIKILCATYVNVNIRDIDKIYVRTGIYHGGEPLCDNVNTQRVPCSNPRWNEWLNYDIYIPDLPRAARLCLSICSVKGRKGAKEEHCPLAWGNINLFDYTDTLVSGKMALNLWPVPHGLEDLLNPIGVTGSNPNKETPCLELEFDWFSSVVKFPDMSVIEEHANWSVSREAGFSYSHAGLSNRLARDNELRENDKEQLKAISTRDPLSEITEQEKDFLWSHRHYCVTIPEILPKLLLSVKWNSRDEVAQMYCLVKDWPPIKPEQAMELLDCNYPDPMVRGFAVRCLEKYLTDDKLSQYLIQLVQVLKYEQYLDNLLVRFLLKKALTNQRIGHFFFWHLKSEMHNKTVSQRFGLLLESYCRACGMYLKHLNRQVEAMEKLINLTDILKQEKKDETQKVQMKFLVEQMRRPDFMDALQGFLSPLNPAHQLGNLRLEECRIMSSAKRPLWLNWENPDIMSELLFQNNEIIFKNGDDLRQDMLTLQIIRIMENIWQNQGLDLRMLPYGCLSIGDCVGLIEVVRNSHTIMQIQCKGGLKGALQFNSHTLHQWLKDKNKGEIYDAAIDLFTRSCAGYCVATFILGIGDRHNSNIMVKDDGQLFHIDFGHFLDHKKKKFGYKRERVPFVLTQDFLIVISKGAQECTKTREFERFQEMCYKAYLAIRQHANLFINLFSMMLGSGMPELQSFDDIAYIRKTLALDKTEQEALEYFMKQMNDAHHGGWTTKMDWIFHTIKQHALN
T3 sequence (P27986 whole entry partner): as the sequence (P27986 whole entry partner) above
T2 sequence (P48736 whole entry): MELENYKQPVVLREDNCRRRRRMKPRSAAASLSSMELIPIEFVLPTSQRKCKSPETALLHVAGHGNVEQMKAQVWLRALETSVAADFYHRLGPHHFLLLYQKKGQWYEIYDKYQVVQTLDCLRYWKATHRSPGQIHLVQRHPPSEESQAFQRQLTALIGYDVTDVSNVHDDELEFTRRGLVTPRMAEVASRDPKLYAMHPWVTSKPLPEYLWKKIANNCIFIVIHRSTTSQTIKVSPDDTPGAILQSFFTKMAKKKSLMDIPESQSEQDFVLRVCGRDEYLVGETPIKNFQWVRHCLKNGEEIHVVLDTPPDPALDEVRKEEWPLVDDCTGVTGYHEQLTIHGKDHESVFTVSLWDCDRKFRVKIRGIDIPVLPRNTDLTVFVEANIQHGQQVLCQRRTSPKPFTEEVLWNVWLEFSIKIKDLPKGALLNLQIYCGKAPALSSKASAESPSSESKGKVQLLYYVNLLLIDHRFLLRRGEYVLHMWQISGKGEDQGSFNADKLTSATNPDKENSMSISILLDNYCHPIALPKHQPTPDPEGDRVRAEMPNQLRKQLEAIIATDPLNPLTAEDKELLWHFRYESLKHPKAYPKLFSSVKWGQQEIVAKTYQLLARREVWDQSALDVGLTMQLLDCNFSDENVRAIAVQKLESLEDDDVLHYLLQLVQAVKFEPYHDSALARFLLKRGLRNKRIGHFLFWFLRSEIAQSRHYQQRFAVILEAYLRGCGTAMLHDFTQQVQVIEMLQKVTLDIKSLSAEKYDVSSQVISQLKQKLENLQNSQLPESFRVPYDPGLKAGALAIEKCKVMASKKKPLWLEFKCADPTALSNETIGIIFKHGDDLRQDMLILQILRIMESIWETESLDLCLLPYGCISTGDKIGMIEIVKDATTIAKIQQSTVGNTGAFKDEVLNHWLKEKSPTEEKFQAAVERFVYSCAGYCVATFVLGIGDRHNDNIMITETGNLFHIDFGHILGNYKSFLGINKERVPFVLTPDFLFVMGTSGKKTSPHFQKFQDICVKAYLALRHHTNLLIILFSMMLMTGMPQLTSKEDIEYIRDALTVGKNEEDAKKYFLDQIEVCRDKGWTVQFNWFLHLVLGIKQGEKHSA

As to `C[C@@H]1C[C@H]2[C@@H]3CCC4=CC(=O)C=C[C@]4(C)[C@@]3(F)[C@@H](O)C[C@]2(C)[C@@]1(O)C(=O)CO` [Dex, dexamethasone, reference compound], in the test with NZBWF1/J mice (kidney histopathology), the Glomerulonephritis score reduction stood at 91%. Further, in the test on NZBWF1/J mice, the “Interstitial nephritis score reduction” value is reported as 95%, the Kidney weight increase came to 20%, the “Perivascular inflammation score reduction” value worked out at 100% and the Spleen weight reduction came to 76%. In addition, the “Summed histopathology scores reduction” value in the test with NZBWF1/J mice is on record as 88%.

Consider `CCCCCCCCc1ccc(CCC(N)(CO)CO)cc1` [FTY720, reference compound], for which, in the test with mouse EAE model, the “MMS +/− SD” value is on record as 1.65 +/− 1.23 and the “Median Day of Onset” value is listed as 11.5 days. Moreover, the “End % body weight +/− SD” value in the test on mouse EAE model (Day 27 relative to Day −1) is recorded as 110.0 +/− 7.4%. The “End score +/− SD” value with mouse EAE model (Day 28) is recorded as 0.45 +/− 0.44. The “Inflammatory foci +/− SD” value with mouse EAE model (per spinal cord section) is 0.3 +/− 0.4. Besides, the “Demyelination (LFB) +/− SD” value in the test on mouse EAE model (score per section) is on record as 0.3 +/− 0.3.

Regarding `Cc1ccccc1-n1c(Cn2nc(I)c3c(N)ncnc32)cc2cccc(C)c2c1=O` [Compound 6], the EC50 (commonly the concentration at which the effect is half-maximal) in the test on B cell proliferation was less than 100 nM.

Regarding `Cc1ccccc1-n1c(Cn2nc(-c3cc(O)cc(F)c3)c3c(N)ncnc32)cc2cccc(C)c2c1=O` [Compound 8], the IC50 (as a rule, the concentration that gives 50% inhibition) against PI3K β was more than 10000 nM. In the test on B cell proliferation, the EC50 is less than 1000 nM.

Regarding `Cc1cccc2cc(Cn3nc(C#CCO)c4c(N)ncnc43)n(-c3ccccc3F)c(=O)c12` [Compound 7], the IC50 is less than 1000 nM on PI3K β, less than 100 nM on PI3K γ and less than 10000 nM against PI3K α. In the test with B cell proliferation, this compound displayed an EC50 of less than 100 nM.
